Consider 35 molecules from patent US9458153B2, “Dihydroquinolizinones for the treatment and prophylaxis of hepatitis B virus infection” (Hoffmann-La Roche Inc., priority 2014, dated 2016).

One assay relates to HBsAg. The experiment in a line: HBsAg assay (chemiluminescence immunoassay of secreted HBsAg in HepG2.2.15 culture supernatant). The class given is cell-based, HBV. As to conditions: HBsAg secretion reduced by 50% vs no drug control; HepG2.2.15 cells; CLIA kit. The method, boiled down:
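IC50 came from dose-response curves of HBsAg in culture supernatant, measured semi-quantitatively by chemiluminescent immunoassay. The HBV-producing HepG2.2.15 line was dosed in duplicate with a three-fold compound dilution series, with DMSO at 1% final and DMSO alone as the no-drug control.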
Molecule `COc1cc2c(cc1OC)-c1cc(=O)c(C(=O)O)cn1C(C(C)C)C2` (centres unmarked) [Example 98, 6-isopropyl-9,10-dimethoxy-2-oxo-6,7-dihydrobenzo[a]quinolizine-3-carboxylic acid] gave an IC50 of 16 nM.
In turn, `COc1cc2c(cc1OC)-c1cc(=O)c(C(=O)O)cn1C(CC(C)C)C2` (centres unmarked) [Example 101, 6-isobutyl-9,10-dimethoxy-2-oxo-6,7-dihydrobenzo[a]quinolizine-3-carboxylic acid] had an IC50 of 45 nM.
Still for that read-out and setting: in the case of `COCCOc1cc2c(cc1Cl)-c1cc(=O)c(C(=O)O)cn1C(CC(C)C)C2` (centres unmarked) [Example 104, 10-chloro-6-isobutyl-9-(2-methoxyethoxy)-2-oxo-6,7-dihydrobenzo[a]quinolizine-3-carboxylic acid] it was 18 nM; in that of `COCCOc1cc2c(cc1Cl)-c1cc(=O)c(C(=O)O)cn1C(C(C)C)C2` (centres unmarked) [Example 107, 10-chloro-6-isopropyl-9-(2-methoxyethoxy)-2-oxo-6,7-dihydrobenzo[a]quinolizine-3-carboxylic acid], 12 nM.
Molecule `CCC1Cc2cc(OCc3ccccc3)c(C)cc2-c2cc(=O)c(C(=O)O)cn21` (centres unmarked) [Example 115, 9-benzyloxy-6-ethyl-10-methyl-2-oxo-6,7-dihydrobenzo[a]quinolizine-3-carboxylic acid] came in with an IC50 of 29 nM.
Regarding `COCCCOc1cc2c(cc1Cl)-c1cc(=O)c(C(=O)O)cn1C(C(C)C)C2` (centres unmarked) [Example 120, 10-chloro-6-isopropyl-9-(3-methoxypropoxy)-2-oxo-6,7-dihydrobenzo[a]quinolizine-3-carboxylic acid], the IC50 was 2 nM. This IC50 is about 14-fold lower than that of the molecule before.
Still for that read-out and setting: with `COc1cc2c(cc1OCC(F)(F)F)CC(C(C)C)n1cc(C(=O)O)c(=O)cc1-2` (centres unmarked) [Example 126, 6-isopropyl-10-methoxy-2-oxo-9-(2,2,2-trifluoroethoxy)-6,7-dihydrobenzo[a]quinolizine-3-carboxylic acid] the figure was 8 nM; with `COCCCOc1cc2c(cc1OC)-c1cc(=O)c(C(=O)O)cn1C(C(C)(C)C)C2` (centres unmarked) [Example 131, 6-tert-butyl-10-methoxy-9-(3-methoxypropoxy)-2-oxo-6,7-dihydrobenzo[a]quinolizine-3-carboxylic acid], 1 nM.
Molecule `COCCOc1cc2c(cc1OC)-c1cc(=O)c(C(=O)O)cn1C(C1(C)CC1)C2` (centres unmarked) [Example 134, 10-methoxy-9-(2-methoxyethoxy)-6-(1-methylcyclopropyl)-2-oxo-6,7-dihydrobenzo[a]quinolizine-3-carboxylic acid] registered an IC50 of 7 nM.
Turning to `COCCCOc1cc2c(c(Cl)c1F)-c1cc(=O)c(C(=O)O)cn1C(C(C)C)C2` (centres unmarked) [Example 137, 11-chloro-10-fluoro-6-isopropyl-9-(3-methoxypropoxy)-2-oxo-6,7-dihydrobenzo[a]quinolizine-3-carboxylic acid], the IC50 was found to be 15 nM. This IC50 lies about 2.1-fold higher than the previous one.
Still for that read-out and setting: in the case of `COc1cc2c(cc1OCC(C)(C)CO)CC(C(C)C)n1cc(C(=O)O)c(=O)cc1-2` (centres unmarked) [Example 144, 9-(3-hydroxy-2,2-dimethyl-propoxy)-6-isopropyl-10-methoxy-2-oxo-6,7-dihydrobenzo[a]quinolizine-3-carboxylic acid] it was 26 nM.
On the same count and under the same terms, with `COc1cc2c(cc1OCC(C)(C)CO)CC(C(C)(C)C)n1cc(C(=O)O)c(=O)cc1-2` (centres unmarked) [Example 149, 6-tert-butyl-9-(3-hydroxy-2,2-dimethyl-propoxy)-10-methoxy-2-oxo-6,7-dihydrobenzo[a]quinolizine-3-carboxylic acid] the figure was 2 nM; with `COc1cc2c(cc1OCCCCCO)CC(C(C)(C)C)n1cc(C(=O)O)c(=O)cc1-2` (centres unmarked) [Example 152, 6-tert-butyl-9-(5-hydroxypentoxy)-10-methoxy-2-oxo-6,7-dihydrobenzo[a]quinolizine-3-carboxylic acid], 2 nM; with `COc1cc2c(cc1OCCCCCCO)CC(C(C)(C)C)n1cc(C(=O)O)c(=O)cc1-2` (centres unmarked) [Example 155, 6-tert-butyl-9-(6-hydroxyhexoxy)-10-methoxy-2-oxo-6,7-dihydrobenzo[a]quinolizine-3-carboxylic acid], 2 nM.
Still for that read-out and setting: in the case of `COc1cc2c(cc1OCCCCCCN)CC(C(C)(C)C)n1cc(C(=O)O)c(=O)cc1-2` (centres unmarked) [Example 160, 9-(6-aminohexoxy)-6-tert-butyl-10-methoxy-2-oxo-6,7-dihydrobenzo[a]quinolizine-3-carboxylic acid] it was 18 nM; in that of `COc1cc2c(cc1OCCCCCCNC(=O)OC(C)(C)C)CC(C(C)(C)C)n1cc(C(=O)O)c(=O)cc1-2` (centres unmarked) [Example 161, 9-[6-(tert-butoxycarbonylamino)hexoxy]-6-tert-butyl-10-methoxy-2-oxo-6,7-dihydrobenzo[a]quinolizine-3-carboxylic acid], 9 nM; in that of `COc1cc2c(cc1OCCCCCCCCN)CC(C(C)(C)C)n1cc(C(=O)O)c(=O)cc1-2` (centres unmarked) [Example 166, 9-(8-aminooctoxy)-6-tert-butyl-10-methoxy-2-oxo-6,7-dihydrobenzo[a]quinolizine-3-carboxylic acid], 6 nM.
The molecule `COc1cc2c(cc1OCCCCCCCCNC(=O)OC(C)(C)C)CC(C(C)(C)C)n1cc(C(=O)O)c(=O)cc1-2` (centres unmarked) [Example 167, 9-[8-(tert-butoxycarbonylamino)octoxy]-6-tert-butyl-10-methoxy-2-oxo-6,7-dihydrobenzo[a]quinolizine-3-carboxylic acid] had an IC50 of 11 nM.

Staying with this assay, now noted: Hepatitis B virus, HepG2.2.15, HBsAg secretion reduced by 50% vs no drug control; HepG2.2.15 cells; CLIA kit.
In turn, `CCC1Cc2cc(Br)c(OC)cc2-c2cc(=O)c(C(=O)O)cn21` (centres unmarked) [Example 92, 9-bromo-6-ethyl-10-methoxy-2-oxo-6,7-dihydrobenzo[a]quinolizine-3-carboxylic acid] had an IC50 of 230 nM.
Still for that read-out and setting: with `CCC1Cc2cc(C#N)c(OC)cc2-c2cc(=O)c(C(=O)O)cn21` (centres unmarked) [Example 93, 9-cyano-6-ethyl-10-methoxy-2-oxo-6,7-dihydrobenzo[a]quinolizine-3-carboxylic acid] the figure was 190 nM; with `CCOc1ccc(Br)c2c1-c1cc(=O)c(C(=O)O)cn1C(CC)C2` (centres unmarked) [Example 94, 8-bromo-11-ethoxy-6-ethyl-2-oxo-6,7-dihydrobenzo[a]quinolizine-3-carboxylic acid], 410 nM.
Same read-out and setting: with `CCOc1ccc(C#N)c2c1-c1cc(=O)c(C(=O)O)cn1C(CC)C2` (centres unmarked) [Example 95, 8-cyano-11-ethoxy-6-ethyl-2-oxo-6,7-dihydrobenzo[a]quinolizine-3-carboxylic acid] the figure was 7830 nM; with `CCCC1Cc2cc(OC)c(OC)cc2-c2cc(=O)c(C(=O)O)cn21` (centres unmarked) [Example 96, 9,10-dimethoxy-2-oxo-6-propyl-6,7-dihydrobenzo[a]quinolizine-3-carboxylic acid], 49 nM.
The same measure, in the same setting: in the case of `COc1cc2c(cc1OC)-c1cc(=O)c(C(=O)O)cn1C(C1CC1)C2` (centres unmarked) [Example 97, 6-cyclopropyl-9,10-dimethoxy-2-oxo-6,7-dihydrobenzo[a]quinolizine-3-carboxylic acid] it was 70 nM; in that of `COCCOc1cc2c(cc1F)-c1cc(=O)c(C(=O)O)cn1C(C(C)C)C2` (centres unmarked) [Example 110, 10-fluoro-6-isopropyl-9-(2-methoxyethoxy)-2-oxo-6,7-dihydrobenzo[a]quinolizine-3-carboxylic acid], 52 nM.
The molecule `COCCOc1cc(Cl)c2c(c1)CC(C(C)C)n1cc(C(=O)O)c(=O)cc1-2` (centres unmarked) [Example 111, 11-chloro-6-isopropyl-9-(2-methoxyethoxy)-2-oxo-6,7-dihydrobenzo[a]quinolizine-3-carboxylic acid] showed an IC50 of 40 nM.
Same read-out and setting: in the case of `CCC1Cc2cc(C)c(C)cc2-c2cc(=O)c(C(=O)O)cn21` (centres unmarked) [Example 112, 6-ethyl-9,10-dimethyl-2-oxo-6,7-dihydrobenzo[a]quinolizine-3-carboxylic acid] it was 140 nM; in that of `CCC1Cc2c(ccc(C)c2C)-c2cc(=O)c(C(=O)O)cn21` (centres unmarked) [Example 113, 6-ethyl-8,9-dimethyl-2-oxo-6,7-dihydrobenzo[a]quinolizine-3-carboxylic acid], 640 nM; in that of `COc1cc2c(cc1OC)-c1cc(=O)c(C(=O)O)cn1C(C(F)(F)F)C2` (centres unmarked) [Example 114, 9,10-dimethoxy-2-oxo-6-(trifluoromethyl)-6,7-dihydrobenzo[a]quinolizine-3-carboxylic acid], 150 nM.
On the same count and under the same terms, in the case of `COCCCOc1cc2c(cc1F)-c1cc(=O)c(C(=O)O)cn1C(C(C)C)C2` (centres unmarked) [Example 140, 10-fluoro-6-isopropyl-9-(3-methoxypropoxy)-2-oxo-6,7-dihydrobenzo[a]quinolizine-3-carboxylic acid] it was 31 nM; in that of `COc1cc2c(cc1OCC(F)(F)CO)CC(C(C)(C)C)n1cc(C(=O)O)c(=O)cc1-2` (centres unmarked) [Example 141, 6-tert-butyl-9-(2,2-difluoro-3-hydroxy-propoxy)-10-methoxy-2-oxo-6,7-dihydrobenzo[a]quinolizine-3-carboxylic acid], 7 nM.
Same read-out and setting: with `COc1cc2c(cc1OCCCO)CC(C(C)C)n1cc(C(=O)O)c(=O)cc1-2` (centres unmarked) [Example 147, 9-(3-hydroxypropoxy)-6-isopropyl-10-methoxy-2-oxo-6,7-dihydrobenzo[a]quinolizine-3-carboxylic acid] the figure was 30 nM.
Consider `COCCCCOc1cc2c(cc1OC)-c1cc(=O)c(C(=O)O)cn1C(C(C)C)C2` (centres unmarked) [Example 148, 6-isopropyl-10-methoxy-9-(4-methoxybutoxy)-2-oxo-6,7-dihydrobenzo[a]quinolizine-3-carboxylic acid], for which the IC50 was determined as 5 nM.
On the same count and under the same terms, in the case of `COc1cc2c(cc1OCCCCO)CC(C(C)(C)C)n1cc(C(=O)O)c(=O)cc1-2` (centres unmarked) [Example 158, 6-tert-butyl-9-(4-hydroxybutoxy)-10-methoxy-2-oxo-6,7-dihydrobenzo[a]quinolizine-3-carboxylic acid] it was 3 nM; in that of `COc1cc2c(cc1OCC#CCO)CC(C(C)(C)C)n1cc(C(=O)O)c(=O)cc1-2` (centres unmarked) [Example 159, 6-tert-butyl-9-(4-hydroxybut-2-ynoxy)-10-methoxy-2-oxo-6,7-dihydrobenzo[a]quinolizine-3-carboxylic acid], 66 nM.
